# From PubChem BioAssay AID743388 (Vanderbilt Specialized Chemistry Center, 2014)
# Where “and” joins values, the source holds several entries; their conditions need not be identical. Equal values may be shown once. Calls of active or inactive are those of the source. No rule for the calls is given here.
# Biological target: Phospholipase D1 (Homo sapiens) (UniProt Q13393)
# Assay: cellular phospholipase D1 activity inhibition – cell-based (AID 743388)
# Settings: Calu-1 cells, PMA-stimulated, PtdBuOH-d9 by mass spectrometry, 30 min; at 20 µM; hits give high values
# Chain of Phospholipase D1 (Homo sapiens) (Q13393 whole entry, looked up): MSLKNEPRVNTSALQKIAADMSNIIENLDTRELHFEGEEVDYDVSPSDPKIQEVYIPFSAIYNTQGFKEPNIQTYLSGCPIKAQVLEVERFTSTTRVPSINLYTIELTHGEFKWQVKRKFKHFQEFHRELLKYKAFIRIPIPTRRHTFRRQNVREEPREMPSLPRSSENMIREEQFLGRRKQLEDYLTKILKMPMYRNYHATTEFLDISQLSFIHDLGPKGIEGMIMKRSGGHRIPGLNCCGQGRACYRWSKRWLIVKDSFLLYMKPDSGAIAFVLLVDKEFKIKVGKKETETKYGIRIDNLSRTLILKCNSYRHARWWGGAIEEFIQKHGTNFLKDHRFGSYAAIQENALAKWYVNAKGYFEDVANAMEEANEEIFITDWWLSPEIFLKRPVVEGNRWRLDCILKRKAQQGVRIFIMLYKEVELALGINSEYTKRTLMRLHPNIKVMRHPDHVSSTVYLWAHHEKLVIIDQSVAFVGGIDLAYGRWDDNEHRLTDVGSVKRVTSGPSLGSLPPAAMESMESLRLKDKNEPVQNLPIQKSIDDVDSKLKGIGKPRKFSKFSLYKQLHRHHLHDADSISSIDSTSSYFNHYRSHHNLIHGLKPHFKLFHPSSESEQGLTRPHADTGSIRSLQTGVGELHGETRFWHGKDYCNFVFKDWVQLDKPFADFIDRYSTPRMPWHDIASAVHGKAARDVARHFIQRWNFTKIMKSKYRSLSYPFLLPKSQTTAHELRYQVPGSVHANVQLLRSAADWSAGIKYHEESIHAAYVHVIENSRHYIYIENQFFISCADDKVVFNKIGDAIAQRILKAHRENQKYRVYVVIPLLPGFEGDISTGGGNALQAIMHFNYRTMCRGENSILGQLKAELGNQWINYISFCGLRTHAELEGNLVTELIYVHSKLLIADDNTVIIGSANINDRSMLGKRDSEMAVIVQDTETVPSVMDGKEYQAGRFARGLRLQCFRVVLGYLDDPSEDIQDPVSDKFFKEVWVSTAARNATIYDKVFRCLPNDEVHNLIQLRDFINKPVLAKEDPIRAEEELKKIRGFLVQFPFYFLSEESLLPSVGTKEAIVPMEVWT
row,SMILES,inhibition
1,COc1cccc(C(=O)N2CNC(=O)C23CCN(CCNC(=O)c2ccc4ccccc4c2)CC3)c1,50%
2,O=C(NCCN1CCC2(CC1)C(=O)NCN2c1cncc(F)c1)c1ccc(F)c(F)c1,17% (inactive)
3,O=C(NCCN1CCC2(CC1)NCNC2=O)c1ccc2ccccc2c1,7% (inactive)
4,O=C(NCCN1CCC2(CC1)C(=O)NCN2Cc1cccnc1)c1ccc(F)cc1F,7% (inactive)
5,O=C(NCCN1CCC2(CC1)C(=O)NCN2c1ccc(C(F)(F)F)nc1)c1ccc2ccccc2c1,2% (inactive)
6,Cn1cc(C(=O)NCCN2CCC3(CC2)C(=O)NCN3Cc2cccnc2)c2ccccc21,5% (inactive)
7,O=C(NCCN1C=CC2(CC1)C(=O)NCN2Cc1cccnc1)c1cccc2nsnc12 (stereo not drawn),9% (inactive)
8,O=C(NCCN1CCC2(CC1)C(=O)NCN2Cc1cccnc1)c1ccnc2ccccc12,13% (inactive)
9,O=C(NCCN1CCC2(CC1)C(=O)NCN2Cc1cccnc1)c1sc2ncccc2c1-n1cccc1,29% (inactive)
10,O=C(NCCN1CCC2(CC1)C(=O)NCN2c1cccnc1)c1ccc2ccccc2c1,7% (inactive)
11,O=C(NCCN1CCC2(CC1)C(=O)NCN2Cc1cccnc1)c1c(F)ccc(Cl)c1F,0% (inactive)
12,O=C(NCCN1CCC2(CC1)C(=O)NCN2c1cncc(F)c1)c1ccc(Br)cc1,12% (inactive)
13,O=C(NCCN1CCC2(CC1)C(=O)NCN2Cc1cccnc1)c1cc(F)cc(F)c1,0% (inactive)
14,O=C(NCCN1CCC2(CC1)C(=O)NCN2Cc1cccnc1)c1c(Cl)cncc1Cl,20% (inactive)
15,O=C(NCCN1CCC2(CC1)C(=O)NCN2Cc1cccc(OC(F)(F)F)c1)c1ccc2ccccc2c1,10% (inactive)
16,O=C(NCCN1CCC2(CC1)C(=O)NCN2Cc1cccnc1)c1ccc(Cl)cc1Cl,0% (inactive)
17,COc1cc(C(=O)NCCN2CCC3(CC2)C(=O)NCN3Cc2cccnc2)cc(OC)c1OC,0% (inactive)
18,O=C(NCCN1CCC2(CC1)C(=O)NCN2Cc1cccnc1)c1cccc2cccnc12,4% (inactive)
19,O=C(NCCN1CCC2(CC1)C(=O)NCN2Cc1cccnc1)c1ccc(SC(F)(F)F)cc1,5% (inactive)
20,O=C(NCCN1CCC2(CC1)C(=O)NCN2Cc1cccnc1)c1ccc2ccccc2c1Br,10% (inactive)
21,O=C(NCCN1CCC2(CC1)C(=O)NCN2Cc1cccnc1)c1ccc(C(F)(F)F)cc1,0% (inactive)
22,O=C(NCCN1CCC2(CC1)C(=O)NCN2Cc1ccncc1)c1ccc2ccccc2c1,53%
23,O=C(NCCN1CCC2(CC1)C(=O)NCN2c1cncc(F)c1)c1ccc(F)cc1,25% (inactive)
24,O=C(NCCN1CCC2(CC1)C(=O)NCN2Cc1cccnc1)c1ccc(F)c(F)c1,3% (inactive)
25,O=C(NCCN1CCC2(CC1)C(=O)NCN2Cc1cccc2ccccc12)c1ccc2ccccc2c1,94%
26,O=C(NCCN1CCC2(CC1)C(=O)NCN2Cc1cccnc1)c1cc2cccnc2[nH]1,16% (inactive)

row,SMILES,inhibition
1,Cc1cc(Br)cnc1C(=O)NCCN1CCC2(CC1)C(=O)NCN2Cc1cccnc1,0% (inactive)
2,O=C(NCCN1CCC2(CC1)C(=O)NCN2Cc1ccc(Cl)cc1)c1ccc2ccccc2c1,64%
3,O=C(NCCN1CCC2(CC1)C(=O)NCN2Cc1cccnc1)c1ccc(F)cc1,3% (inactive)
4,O=C(NCCN1CCC2(CC1)C(=O)NCN2Cc1cccnc1)c1ccc2c(c1)C(=O)NC2=O,13% (inactive)
5,O=C(NCCN1CCC2(CC1)C(=O)NCN2c1cccnc1)c1cc2cc(F)ccc2[nH]1,9% (inactive)
6,O=C(NCCN1CCC2(CC1)C(=O)NCN2Cc1cccnc1)c1cccc(Cl)c1,0% (inactive)
7,O=C(NCCN1CCC2(CC1)C(=O)NCN2Cc1cccnc1)c1ccc(Cl)c(Cl)c1,13% (inactive)
8,O=C(NCCN1CCC2(CC1)C(=O)NCN2C(=O)C1CC1)c1ccc2ccccc2c1,83%
9,O=C(NCCN1CCC2(CC1)C(=O)NCN2c1cncc(F)c1)c1ccc2ccccc2c1,14% (inactive)
10,O=C(NCCN1CCC2(CC1)C(=O)NCN2Cc1cccnc1)c1cccc(F)c1,2% (inactive)
11,O=C(NCCN1CCC2(CC1)C(=O)NCN2Cc1cccnc1)c1ccc(Br)cc1,9% (inactive)
12,O=C(NCCN1CCC2(CC1)C(=O)NCN2Cc1cccnc1)c1cccc(C(F)(F)F)c1,0% (inactive)
13,O=C(NCCN1CCC2(CC1)C(=O)NCN2Cc1cccnc1)c1c[nH]c2ccccc12,25% (inactive)
14,O=C(NCCN1CCC2(CC1)C(=O)NCN2Cc1cccnc1)c1ccc(F)cc1Cl,0% (inactive)
15,O=C(NCCN1CCC2(CC1)C(=O)NCN2CC1CC1)c1ccc2ccccc2c1,43% (inactive)
16,O=C(NCCN1CCC2(CC1)C(=O)NCN2c1cncc(F)c1)c1cc2cc(F)ccc2[nH]1,26% (inactive)
17,Cc1ccc(S(=O)(=O)NCCN2CCC3(CC2)C(=O)NCN3Cc2cccnc2)cc1,0% (inactive)
18,O=C(NCCN1CCC2(CC1)C(=O)NCN2Cc1ccccn1)c1ccc2ccccc2c1,88%
19,Cc1cc(C)c2cc(C(=O)NCCN3CCC4(CC3)C(=O)NCN4Cc3cccnc3)[nH]c2c1,13% (inactive)
20,O=C(NCCN1CCC2(CC1)C(=O)NCN2Cc1cccnc1)c1ccccc1F,0% (inactive)
21,O=C(NCCN1CCC2(CC1)C(=O)NCN2c1cccnc1)c1ccc(F)c(F)c1,16% (inactive)
22,O=C(NCCN1CCC2(CC1)C(=O)NCN2Cc1cccc(Cl)c1)c1ccc2ccccc2c1,89%
23,O=C(NCCN1CCC2(CC1)C(=O)NCN2C(=O)C1CCC1)c1ccc2ccccc2c1,80%
24,O=C(NCCN1CCC2(CC1)C(=O)NCN2Cc1cccnc1)c1cc2ccccc2[nH]1,64%
25,O=C(NCCN1CCC2(CC1)C(=O)NCN2Cc1cccnc1)c1cc2ccccc2o1,14% (inactive)
26,Cc1cc(N2CNC(=O)C23CCN(CCNC(=O)c2ccc4ccccc4c2)CC3)ccn1,7% (inactive)

row,SMILES,inhibition
1,O=C(NCCN1CCC2(CC1)C(=O)NCN2Cc1cccnc1)c1cc(F)c(F)c(F)c1,0% (inactive)
2,O=C(NCCN1CCC2(CC1)C(=O)NCN2Cc1cccnc1)c1nc(-c2ccc(F)cc2)no1,30% (inactive)
3,Cn1c(C(=O)NCCN2CCC3(CC2)C(=O)NCN3Cc2cccnc2)cc2ccccc21,10% (inactive)
4,O=C(NCCN1CCC2(CC1)C(=O)NCN2c1cccnc1)c1ccc(Br)cc1,0% (inactive)
5,O=C(NCCN1CCC2(CC1)C(=O)NCN2Cc1ccccc1Br)c1ccc2ccccc2c1,96%
6,O=C(NCCN1CCC2(CC1)C(=O)NCN2c1ccnc(Cl)c1)c1ccc2ccccc2c1,0% (inactive)
7,O=C(NCCN1CCC2(CC1)C(=O)NCN2Cc1cccnc1)c1cccs1,3% (inactive)
8,O=C(NCCN1CCC2(CC1)C(=O)NCN2C(=O)c1cccc(F)c1)c1ccc2ccccc2c1,50%
9,O=C(NCCN1CCC2(CC1)C(=O)NCN2c1cccnc1)c1cc(F)c(F)c(F)c1,6% (inactive)
10,O=C(NCCN1CCC2(CC1)C(=O)NCN2Cc1ccccc1Cl)c1ccc2ccccc2c1,91%
11,O=C(NCCN1CCC2(CC1)C(=O)NCN2Cc1cccnc1)c1ccc(F)cc1C(F)(F)F,0% (inactive)
12,O=C(NCCN1CCC2(CC1)C(=O)NCN2c1ccnc(F)c1)c1ccc2ccccc2c1,3% (inactive)
13,O=C(NCCN1CCC2(CC1)C(=O)NCN2Cc1cccnc1)[C@@H]1C[C@H]1c1ccccc1,23% (inactive)
14,O=C(NCCN1CCC2(CC1)C(=O)NCN2c1cncc(Br)c1)c1ccc2ccccc2c1,9% (inactive)
15,O=C(NCCN1CCC2(CC1)C(=O)NCN2C(=O)c1ccccc1)c1ccc2ccccc2c1,45% (inactive)
16,O=C(NCCN1CCC2(CC1)C(=O)NCN2Cc1cccnc1)c1nccc2ccccc12,0% (inactive)
17,O=C(NCCN1CCC2(CC1)C(=O)NCN2Cc1ccccc1)c1ccc2ccccc2c1,72%
18,O=C(NCCN1CCC2(CC1)C(=O)NCN2c1cncc(F)c1)c1cc(F)c(F)c(F)c1,17% (inactive)
19,O=C(NCCN1CCC2(CC1)C(=O)NCN2Cc1cccnc1)c1ccc(Cl)cc1F,0% (inactive)
20,O=C(NCCN1CCC2(CC1)C(=O)NCN2Cc1cccnc1)c1ccc2cc(F)ccc2c1,9% (inactive)
21,O=C(NCCN1CCC2(CC1)C(=O)NCN2c1cccnc1)c1ccc(F)cc1,7% (inactive)
22,O=C(NCCN1CCC2(CC1)C(=O)NCN2Cc1ccccc1F)c1ccc2ccccc2c1,77% and 87%
23,O=C(NCCN1CCC2(CC1)C(=O)NCN2Cc1cccnc1)c1ccc2ccccc2n1,11% (inactive)
24,Cc1nc2sc(C(=O)NCCN3CCC4(CC3)C(=O)NCN4Cc3cccnc3)c(N)c2c(C)c1C,9% (inactive)
25,O=C(NCCN1CCC2(CC1)C(=O)NCN2Cc1cccnc1)c1ccc2ccccc2c1,37% (inactive) and 38% (inactive)
26,O=C(NCCN1CCC2(CC1)C(=O)NCN2Cc1cccnc1)c1cc2cc(F)ccc2[nH]1,4% (inactive)
